Assay results from patent US11820756B2, “Bradykinin B2 receptor antagonists” (Pharvaris Netherlands B.V., priority 2017, dated 2023).

Target: T1, human bradykinin B2 receptor (hB2R) (Homo sapiens, UniProt P30411)
T1 sequence (P30411 1-391): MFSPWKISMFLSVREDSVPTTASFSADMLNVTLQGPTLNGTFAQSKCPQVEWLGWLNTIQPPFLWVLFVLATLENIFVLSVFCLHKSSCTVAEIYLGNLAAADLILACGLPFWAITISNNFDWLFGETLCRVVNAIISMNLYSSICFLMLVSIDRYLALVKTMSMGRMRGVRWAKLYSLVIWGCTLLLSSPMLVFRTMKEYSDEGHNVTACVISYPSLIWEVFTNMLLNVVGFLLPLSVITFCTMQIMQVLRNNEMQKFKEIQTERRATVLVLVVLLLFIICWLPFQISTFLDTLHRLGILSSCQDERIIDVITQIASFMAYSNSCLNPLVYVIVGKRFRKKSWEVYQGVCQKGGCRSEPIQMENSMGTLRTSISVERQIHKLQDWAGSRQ
Assay: cell-based human bradykinin B2 receptor calcium mobilization (hB2R-CaM) assay
Details: HTS041C cells, bradykinin at EC80, calcium mobilization; read-out: IC50-value towards human bradykinin B2 receptor (hB2R)
Excerpt: The following cell-based human bradykinin B2 receptor calcium mobilization (hB2R-CaM) assay was used to determine the antagonistic activity of compounds selected from the example compounds Nos. 1 to 168 towards human bradykinin B2 receptor (hB2R). The assay is defined herein as a standard in vitro B2 receptor activity assay, which can be used to determine IC50 values of the compounds according to the present invention, e. g. the compounds shown in Examples 1-11.
The antagonistic activity of compounds according to the present invention was investigated with the hB2R-CaM assay using the B2 Bradykinin Receptor Stable Cell Line HTS041C (Eurofins, St. Charles MO) and the FLIPR Calcium 6 Assay Kit (Molecular Devices, Wokingham, UK) according to the instructions of the providers. CaM assay measurements were performed with a Flexstation 3 System (Molecular Devices) which allows the precise addition of compounds (B2R antagonists) and bradykinin (B2R agonist) to the cells and adjacent continuous recording of the time-dependent CaM assay signals.
HTS041C cells were cultured in high glucose DMEM cell culture medium (Lonza) supplemented with 10% heat-inactivated FBS (PAN Biotech), 10 mM HEPES, Penicillin/Streptomycin (200 U/mL, 200 μg/mL), 1× non-essential amino acids (Lonza), and 250 μg/mL G418 (Invivogen) in cell incubator at 37° C. in a 5% CO2 atmosphere.
One day before the CaM assay experiments cells were seeded in 200 μL DMEM cell culture medium with reduced FBS (5%) and without G418 on clear bottom black 96 well plates (ThermoFisher #165305). Cell starvation was carried out by incubation (37° C., 5% CO2) of 70.000 cells/well for 24 h to 28 h. Immediately prior calcium dye-loading the medium was carefully aspirated and cells were washed with Hank's balanced salt solution (HBSS, Gibco) containing Ca^2+, Mg^2+ and 20 mM HEPES, adjusted to pH 7.4 (HBSS+). Calcium Dye Loading of the Cells:
For calcium dye-loading one FLIPR 6 assay aliquot was dissolved in 20 mL HBSS+. 150 μL of the dye loading solution was added to cell plate and incubated for 120 min at 37° C. and 5% CO2. After dye loading the cell plate was immediately transferred to the pre-warmed (37° C.) Flexstation 3 System for CaM assaying.
Freshly prepared compound (B2 receptor antagonists) dilution series (8 pt, n=2) and bradykinin (B2 receptor agonist) solution in non-binding plates (Costar) were transferred to the Flexstation System (source plate) shortly before starting the experiment. Bradykinin was added in EC80 concentration determined in n>3 preliminary experiments with 8 pt concentration response curves (n=8)). CaM assay was executed by Flexstation 3 System starting with recording of calcium-sensitive dye fluorescence in bottom-read Flex modus with ex/em=485 nm/525 nm, cut off(em)=[…]. After 20 s, 50 μL of 4-fold concentrated compound dilutions were added to the cells resulting in a final DMSO (Sigma) concentration of 0.1% in the cell plate. CaM signals were monitored for 80 s after additions for detection of potential agonistic activities. Prior to bradykinin stimulus compound- and vehicle-treated cells were incubated for 25 min at 37° C. within the Flexstation System. Then 50 μL of a 5-fold concentrated bradykinin solution (HBSS+, 0.1% DMSO) was added to trigger CaM signals (Read out: Max-Min values) which were measured for 80 s post bradykinin stimulus.
IC50 determinations were performed by 4 parameter logistic model curve fitting of the 8 pt (n=2) compound concentration response curves using XLFIT (IDBS) software.
Relative IC50 values of the test compounds were determined with the same hB2R-CaM assay as in Example 12.

| IC50 [nM] | Compound |
| --- | --- |
| ≤ 50 | Cc1cc(-c2ncnn2C)c2cccc(OCc3c(Cl)cc(F)cc3[C@H](C)NC(=O)c3ocnc3C)c2n1 [Compound 126] |
| ≤ 50 | Cc1cc(-c2ncnn2C)c2cccc(OCc3c(Cl)cc(F)cc3[C@H](C)NC(=O)c3ccccn3)c2n1 [Compound 164] |
| ≤ 50 | CC[C@H](NC(=O)c1coc(C)n1)c1cc(F)cc(Cl)c1COc1cccc2c(-c3ncnn3C)cc(C)nc12 [Compound 149] |
| 51 to 250 | Cc1cc(-n2cc(F)cn2)c2cccc(OCc3c(Cl)cc(F)cc3[C@H](C)NC(=O)[C@@H](C)OC(F)F)c2n1 [Compound 93] |
| ≤ 50 | Cc1cc(-c2ncnn2C)c2cccc(OCc3c(Cl)cc(F)cc3[C@H](C)NC(=O)c3cocn3)c2n1 [Compound 128] |
| 51 to 250 | Cc1cc(-c2[nH]ncc2C)c2cccc(OCc3c(Cl)cc(F)cc3[C@H](C)NC(=O)C(F)F)c2n1 [Compound 186] |
| ≤ 50 | Cc1cc(-n2ncnc2C)c2cccc(OCc3c(Cl)cc(F)cc3[C@H](C)NC(=O)CC(F)F)c2n1 [Compound 173] |
| ≤ 50 | Cc1cc(-n2cc(F)cn2)c2cccc(OCc3c(Cl)cc(F)cc3[C@H](C)NC(=O)[C@H](C)CO)c2n1 [Compound 59] |
| ≤ 50 | Cc1cc(-c2ncnn2C)c2cccc(OCc3c(Cl)cc(F)cc3[C@H](C)NC(=O)C(C)(F)F)c2n1 [Compound 178] |
| ≤ 50 | Cc1cc(-c2ccnn2C)c2cccc(OCc3c(Cl)cc(F)cc3[C@H](C)NC(=O)CO)c2n1 [Compound 194] |
| ≤ 50 | Cc1cc(-n2cc(F)cn2)c2cccc(OCc3c(Cl)cc(F)cc3[C@H](C)NC(=O)C3(C)COC3)c2n1 [Compound 58] |
| ≤ 50 | CCn1ncnc1-c1cc(C)nc2c(OCc3c(Cl)cc(F)cc3[C@H](C)NC(=O)c3ccon3)cccc12 [Compound 141] |
| 51 to 250 | Cc1cc(-n2cc(F)cn2)c2cccc(OCc3c(Cl)cc(F)cc3[C@H](C)NC(=O)c3cc(C)n(C)n3)c2n1 [Compound 86] |
| ≤ 50 | Cc1cc(-c2ncnn2C)c2cccc(OCc3c(Cl)cc(F)cc3[C@H](C)NC(=O)[C@@H]3CC[C@H](C)O3)c2n1 [Compound 133] |
| ≤ 50 | Cc1cc(-c2[nH]ncc2C)c2cccc(OCc3c(Cl)cc(F)cc3[C@H](C)NC(=O)C(C)(C)O)c2n1 [Compound 189] |
| ≤ 50 | Cc1cc(-n2cc(F)cn2)c2cccc(OCc3c(Cl)cc(F)cc3[C@H](C)N(C)C(=O)CO)c2n1 [Compound 102] |
| ≤ 50 | Cc1cc(-c2ncnn2C)c2cccc(OCc3c(Cl)cc(F)cc3[C@H](C)NC(=O)c3ccncc3)c2n1 [Compound 163] |
| 51 to 250 | Cc1cc(-n2cc(F)cn2)c2cccc(OCc3c(Cl)cc(F)cc3[C@H](C)NC(=O)[C@@H]3CCC(=O)N3)c2n1 [Compound 114] |
| ≤ 50 | Cc1cc(-n2ncnc2C)c2cccc(OCc3c(Cl)cc(F)cc3[C@H](C)NC(=O)COC(F)F)c2n1 [Compound 9, (S)—N-(1-(3-chloro-5-fluoro-2-((2-methyl-4-(5-methyl-1H-1,2,4-triazol-1-yl)quinolin-8-yloxy)methyl)phenyl)ethyl)-2-(difluoromethoxy)acetamide] |
| 251 to 1000 | Cc1cc(-n2cc(F)cn2)c2cccc(OCc3c(Cl)cc(F)cc3[C@H](C)NC(=O)[C@@H](O)CCN(C)C)c2n1 [Compound 72] |
| ≤ 50 | CCc1ncnn1-c1cc(C)nc2c(OCc3c(Cl)cc(F)cc3[C@H](C)NC(=O)C(C)(C)O)cccc12 [Compound 171] |
| ≤ 50 | Cc1cc(-c2ncnn2C)c2cccc(OCc3c(Cl)cc(F)cc3[C@H](CO)NC(=O)COC(F)F)c2n1 [Compound 190] |
| 51 to 250 | Cc1cc(-n2cc(F)cn2)c2cccc(OCc3c(Cl)cc(F)cc3[C@H](C)NC(=O)c3cn(C)cn3)c2n1 [Compound 108] |

| IC50 [nM] | Compound |
| --- | --- |
| 51 to 250 | CC[C@H](NC(=O)c1coc(C)n1)c1cc(F)cc(Cl)c1COc1cccc2c(-n3cc(F)cn3)cc(C)nc12 [Compound 152] |
| 51 to 250 | Cc1cc(-n2cc(F)cn2)c2cccc(OCc3c(Cl)cc(F)cc3[C@H](C)NC(=O)[C@H]3COC(C)(C)O3)c2n1 [Compound 62] |
| ≤ 50 | CCOCC(=O)N[C@@H](C)c1cc(F)cc(Cl)c1COc1cccc2c(-n3cc(F)cn3)cc(C)nc12 [Compound 18] |
| ≤ 50 | CC[C@H](NC(=O)COC(F)F)c1cc(F)cc(Cl)c1COc1cccc2c(-n3ncnc3C)cc(C)nc12 [Compound 166] |
| ≤ 50 | [2H][C@@](C)(NC(=O)C(C)(F)F)c1cc(F)cc(Cl)c1COc1cccc2c(-c3ncnn3C)cc(C)nc12 [Compound 182] |
| ≤ 50 | Cc1cc(-c2ncnn2C)c2cccc(OCc3c(Cl)cc(F)cc3[C@H](CO)NC(=O)c3cnco3)c2n1 [Compound 191] |
| 51 to 250 | CC[C@H](NC(=O)C(F)F)c1cc(F)cc(Cl)c1COc1cccc2c(-n3cc(F)cn3)cc(C)nc12 [Compound 151] |
| 51 to 250 | Cc1cc(-n2ncnc2C)c2cccc(OCc3c(Cl)cc(F)cc3[C@H](C)NC(=O)[C@@H](C)O)c2n1 [Compound 97] |
| ≤ 50 | Cc1cc(-n2cc(F)cn2)c2cccc(OCc3c(Cl)cc(F)cc3[C@H](C)NC(=O)c3ocnc3C)c2n1 [Compound 91] |
| 251 to 1000 | Cc1cc(-n2cc(F)cn2)c2cccc(OCc3c(Cl)cc(F)cc3[C@H](C)NC(=O)[C@](C)(O)C(F)(F)F)c2n1 [Compound 53] |
| ≤ 50 | COCCC(=O)N[C@@H](CO)c1cc(F)cc(Cl)c1COc1cccc2c(-n3cc(F)cn3)cc(C)nc12 [Compound 107] |
| 251 to 1000 | Cc1cc(-n2cc(F)cn2)c2cccc(OCc3c(Cl)cc(F)cc3[C@H](C)NC(=O)[C@H](O)CC(C)C)c2n1 [Compound 47] |
| ≤ 50 | Cc1cc(-n2nccn2)c2cccc(OCc3c(Cl)cc(F)cc3[C@H](C)NC(=O)[C@H]3CCOC3)c2n1 [Compound 30] |
| ≤ 50 | Cc1cc(-n2nc(C)nc2C)c2cccc(OCc3c(Cl)cc(F)cc3[C@H](C)NC(=O)COC(F)F)c2n1 [Compound 134] |
| ≤ 50 | Cc1cc(-n2ncnc2C)c2cccc(OCc3c(Cl)cc(F)cc3[C@H](C)NC(=O)C(F)F)c2n1 [Compound 174] |
| 51 to 250 | Cc1cc(-n2cc(F)cn2)c2cccc(OCc3c(Cl)cc(F)cc3[C@H](C)NC(=O)[C@H]3COC(=O)N3)c2n1 [Compound 112] |
| ≤ 50 | CCn1ncnc1-c1cc(C)nc2c(OCc3c(Cl)cc(F)cc3[C@H](C)NC(=O)C(C)(C)O)cccc12 [Compound 143] |
| ≤ 50 | Cc1cc(-c2ncnn2C)c2cccc(OCc3c(Cl)cc(F)cc3[C@H](C)NC(=O)C(F)F)c2n1 [Compound 147] |
| ≤ 50 | Cc1cc(-c2ccnn2C)c2cccc(OCc3c(Cl)cc(F)cc3[C@H](C)NC(=O)C(C)(C)O)c2n1 [Compound 184] |
| 51 to 250 | Cc1cc(-n2cc(F)cn2)c2cccc(OCc3c(Cl)cc(F)cc3[C@H](C)NC(=O)CO)c2n1 [Compound 49] |
| ≤ 50 | Cc1cc(-c2ncnn2C)c2cccc(OCc3c(Cl)cc(F)cc3[C@H](C)NC(=O)[C@@H](C)OC(F)F)c2n1 [Compound 85] |
| 51 to 250 | CC[C@@H](O)C(=O)N[C@@H](C)c1cc(F)cc(Cl)c1COc1cccc2c(-n3cc(F)cn3)cc(C)nc12 [Compound 24] |
| 51 to 250 | Cc1cc(-n2cc(F)cn2)c2cccc(OCc3c(Cl)cc(F)cc3[C@H](C)N(C)C(=O)[C@H](C)Cl)c2n1 [Compound 103] |
